Data reported in US20250188030A1, “Biphenyl and Phenylpyridine Compounds” (Pfizer Inc., priority 2023, published 2025).
Where two headings read alike, the source gives them in different places.

Legend:
[1] = test system: H3K9AC (HT1080 cells); assay: H3K9AC Sandwich ELISA Assay in HT1080 cells (KAT2A primary cell-based screening assay); design: species or system Human
Procedure: Human fibrosarcoma cell line HT1080 was obtained from American Type Culture Collection (ATCC), Manassas, VA USA, Cat. HT-1080 (ATCC® CCL-121™). Cells were cultured in MEM (Thermo Fisher Scientific/Gibco Life Technologies Cat. #11-095-080) plus 10% (v/v) FBS (Thermo Fisher Scientific/Gibco Life Technologies Cat. #26140-079) and 1% Penicillin-Streptomycin (Thermo Fisher Scientific/Gibco Life Technologies Cat. #15070063) at 37° C. in 5% CO2.
HT1080 cells were trypsinized, cell viability count performed, and cells suspended in complete media at 100,000 cells/ml. Cells were seeded (100 μl/well) into Greiner Bio-One CELLSTAR 96-well polystyrene flat bottom cell culture microplate (Thermo Fisher Scientific Cat. #07-000-162) at a density of 10,000 cells/well. Cells were incubated for 16 hours at 37° C. at 5% CO2. Compound dilution plates were prepared in 96-well, clear U-bottom, polypropylene plates (Corning 3365) in 100% DMSO at 10 mM stock concentration in duplicate, using 10-point serial dilution (1:3). Compounds were diluted to 1:200 in growth medium and 25 μl from intermediate compound plates were added to each well of the cell plates using a Beckman FX liquid handling system such that the highest compound concentration tested was 10 μM final, with a 0.1% final DMSO concentration in the total volume of 125 μl. Plates were incubated for 24 hours at 37° C. and 5% CO2. Plates were centrifuged at 2500 rpm for 5 minutes and medium was removed. 100 μL 0.4N HCL (Thermo Fisher Scientific Cat #SA56-1) was added to each well and plates were shaken for 60 minutes at 4C to lyse cells. 38ul 0.4N Sodium phosphase dibasic pH12.5 (Thermo Fisher Scientific Cat #S375-212) containing 2 mM Sodium Butyrate (Millipore TR1008G) and 3 mM Phenylmethanesulfonyl-fluoride (Sigma 93482) was added to each well to neutralize lysates.
Cell lysate plates were mixed for 5 minutes at room temperature on shaker and immediately frozen at −80C overnight. Cell lysates were thawed and 50 μL/well was transferred to ELISA plates (Total Histone H3 mouse (Cell Signaling Technology Cat #14269) mAb-coated Corning 1×8 strip-well, white, 96-well plates (Corning 2485)). After 2 hours room temperature incubation, plates were washed six times with PBS/0.05% Tween Wash Buffer using a BioTek plate washer. 50 μL of Histone H3K9AC rabbit detection mAb (Cell Signaling Technology Cat #9649S) diluted 1:1000 in blocking buffer (Thermo Fisher Scientific Cat #37542) was added to each well and incubated for 2 hours at room temperature. After washing, 50 μL anti-rabbit IgG, HRP-Linked antibody (Cell Signaling Technology Cat #7074) diluted 1:1000 in blocking buffer was added to each well and incubated for 60 minutes at room temperature. Following incubation, plates were washed as described above. 50 μL of luminescent GLO substrate reagent (R&D System Cat #DY993) was added to each well and incubated for 10 minutes at room temperature. Plates were read on the PHERAstar plate reader using the 96-well with Luminescent reading mode. IC50 values were calculated using a four-parameter fit with GraphPad Prism version 9.5.1 or in-house modified IDBS ActivityBase data analyzing package.

[2] = target: KAT2A (Homo sapiens (Human), UniProt Q92830); assay: KAT2A acetyltransferase biochemical assay (RapidFire mass spectrometry, AcCoA to CoA)
Sequence of KAT2A (Q92830 whole entry): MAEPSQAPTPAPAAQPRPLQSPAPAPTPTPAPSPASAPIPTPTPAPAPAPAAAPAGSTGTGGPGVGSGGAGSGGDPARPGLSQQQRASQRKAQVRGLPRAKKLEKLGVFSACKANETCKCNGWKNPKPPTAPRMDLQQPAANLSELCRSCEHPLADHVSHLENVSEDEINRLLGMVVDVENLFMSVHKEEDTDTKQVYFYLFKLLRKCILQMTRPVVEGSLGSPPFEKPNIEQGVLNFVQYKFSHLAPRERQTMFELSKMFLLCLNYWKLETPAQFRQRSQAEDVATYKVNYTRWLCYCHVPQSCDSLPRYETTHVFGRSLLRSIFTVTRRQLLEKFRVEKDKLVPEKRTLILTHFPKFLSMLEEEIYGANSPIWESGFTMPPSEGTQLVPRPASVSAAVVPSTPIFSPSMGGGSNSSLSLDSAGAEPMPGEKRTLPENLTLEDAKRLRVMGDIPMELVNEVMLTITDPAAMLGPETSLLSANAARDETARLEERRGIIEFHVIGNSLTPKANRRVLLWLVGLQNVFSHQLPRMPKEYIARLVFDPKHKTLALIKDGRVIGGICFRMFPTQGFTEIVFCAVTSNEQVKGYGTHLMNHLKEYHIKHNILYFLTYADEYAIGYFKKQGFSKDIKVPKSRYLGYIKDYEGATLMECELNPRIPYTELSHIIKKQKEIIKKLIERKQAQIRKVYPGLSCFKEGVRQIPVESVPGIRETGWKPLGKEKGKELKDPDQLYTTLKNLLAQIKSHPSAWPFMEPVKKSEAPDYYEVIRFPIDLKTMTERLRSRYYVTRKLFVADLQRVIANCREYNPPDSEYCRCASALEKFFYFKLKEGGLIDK

[3] = Homo sapiens, HT-1080, H3K9AC sandwich ELISA
[4] = read-out: KAT2A Ki at 1 μM AcCoA, 5 μM H3 1-21 peptide, 0.5 nM KAT2A, 90-minute reaction
[5] = KAT2A Ki at 1 μM AcCoA, 5 μM H3 1-21 peptide, 0.5 nM KAT2A, 90-minute reaction

| Ki [2, 4] | SMILES | also measured |
| --- | --- | --- |
| 746 nM | CC(C)(C(=O)NS(=O)(=O)N1CC(F)C1)c1ccc(O[C@@H]2CC[C@@H](NC(=O)[C@]3(F)CNC4(CCC4)C3)C2)c(-c2cccc(F)c2C2CCC2)c1 (single isomer, unassigned) [Example B6] | IC50 [1, 3]: > 1000 nM |
| 0.16 nM | CCS(=O)(=O)NC(=O)C(C)c1ccc(O[C@@H]2CC[C@@H](NC(=O)[C@@]3(F)CNC4(CCC4)C3)C2)c(-c2ccccc2C(C)C)c1 (single isomer, unassigned) [Example C89] | IC50 ([1]; H3K9AC sandwich ELISA): 6.5 nM |
| 24.5 nM | CN1CC(C)(C)C[C@H]1C(=O)N[C@@H]1CC[C@@H](Oc2cccc(C(=O)NS(C)(=O)=O)c2-c2cccc(F)c2C2CCC2)C1 (atropisomer, axis not shown) [Example I1, N-[(1R,3R)-3-({(1Ψ)-2′-cyclobutyl-3′-fluoro-6-[(methanesulfonyl)carbamoyl][1,1′-biphenyl]-2-yl}oxy)cyclopentyl]-1,4,4-trimethyl-L-prolinamide] | IC50 [1, 3]: 41.9 nM |
| – | CN1CC(C)(C)C[C@H]1C(=O)N[C@H]1C[C@H](Oc2ccc(C(C)(C)C(=O)O)cc2-c2cccc(F)c2C2CCC2)C[C@H]1O [Example K1, 2-[2′-cyclobutyl-3′-fluoro-6-({(1S,3R,4S)-3-hydroxy-4-[(1,4,4-trimethyl-L-prolyl)amino]cyclopentyl}oxy)[1,1′-biphenyl]-3-yl]-2-methylpropanoic acid] | IC50 [1, 3]: 5.19 nM; Ki [2, 5]: 0.15 nM |
| 24.4 nM | CN1CC(C)(C)C[C@H]1C(=O)N[C@@H]1CC[C@@H](Oc2cccc(C(=O)NS(=O)(=O)N(C)C)c2-c2cccc(F)c2C2CCC2)C1 (atropisomer, axis not shown) [Example I7, N-[(1R,3R)-3-({(1ψ)-2′-cyclobutyl-6-[(dimethylsulfamoyl)carbamoyl]-3′-fluoro[1,1′-biphenyl]-2-yl}oxy)cyclopentyl]-1,4,4-trimethyl-L-prolinamide] | IC50 [1, 3]: 41.4 nM |
| > 99.9 nM | CCc1c(F)cccc1-c1cc(C(C)(C)C(=O)NS(=O)(=O)C(C)C)ccc1O[C@@H]1CC[C@@H](NC(=O)[C@@]2(F)CNCC(C)(C)C2)C1 (single isomer, unassigned) [Example C44] | IC50 ([1]; H3K9AC sandwich ELISA): > 1000 nM |
| > 99.9 nM | O=C(O)c1ccc(O[C@@H]2CC[C@@H](NC(=O)[C@@]3(F)CNCC4(CCC4)C3)C2)c(-c2cccc(F)c2C2CCC2)c1 (single isomer, unassigned) [Example A33] | IC50 ([1]; H3K9AC sandwich ELISA): > 1000 nM |
| – | CCC1(CC)C[C@@](F)(C(=O)N[C@@H]2CC[C@@H](Oc3ccc(C(C)(C)C(=O)O)cc3-c3cccc(F)c3C3CCC3)C2)CN1 (single isomer, unassigned) [Example A30] | IC50 ([1]; H3K9AC sandwich ELISA): > 1000 nM |
| – | CC1(C)CNC[C@](F)(C(=O)N[C@@H]2CC[C@@H](Oc3cccc(CC(=O)O)c3-c3cccc(F)c3C3CCC3)C2)C1 (atropisomer, axis not shown) [Example H13, [(1 ψ)-2′-cyclobutyl-3′-fluoro-6-{[(1R,3R)-3-{[(3ξ)-3-fluoro-5,5-dimethylpiperidine-3-carbonyl]amino}cyclopentyl]oxy}[1,1′-biphenyl]-2-yl]acetic acid] | IC50 ([1]; H3K9AC sandwich ELISA): 9.7 nM |
| – | CCC1(CC)C[C@@](F)(C(=O)N[C@@H]2CC[C@@H](Oc3ccc(C(C)(C)C(=O)O)cc3-c3cccc(F)c3C3CCC3)C2)CN1 (single isomer, unassigned) [Example A31] | IC50 ([1]; H3K9AC sandwich ELISA): 9.3 nM |
| – | CC(C)S(=O)(=O)NC(=O)C(C)(C)c1ccc(O[C@@H]2CC[C@@H](NC(=O)[C@@]3(F)CNC4(CCC4)C3)C2)c(-c2cccc(F)c2C2CCC2)c1 (single isomer, unassigned) [Example B3] | Ki [2, 5]: 236 nM |
| – | CN1CC(C)(C)C[C@H]1C(=O)N[C@@H]1CC[C@@H](Oc2cccc(CC(=O)O)c2-c2ccccc2C2CCC2)C1 (atropisomer, axis not shown) [Example H7] | IC50 ([1]; H3K9AC sandwich ELISA): 340 nM |
| – | CS(=O)(=O)NC(=O)Cc1ccc(O[C@@H]2CC[C@@H](NC(=O)[C@]3(F)CNC4(CCC4)C3)C2)c(-c2cccc(F)c2C2CCC2)c1 (single isomer, unassigned) [Example C39] | Ki [2, 5]: 20.4 nM |
| > 99.9 nM | CCc1c(F)cccc1-c1cc([C@@H](C)C(=O)NS(=O)(=O)C2(C)CC2)ccc1O[C@@H]1CC[C@@H](NC(=O)[C@@]2(F)CNC3(CCCC3)C2)C1 (single isomer, unassigned) [Example C86] | – |
| 517 nM | CC(C)(C(=O)NS(=O)(=O)C1CC1)c1ccc(O[C@@H]2CC[C@@H](NC(=O)[C@]3(F)CNC4(CCC4)C3)C2)c(-c2cccc(F)c2C2CCC2)c1 (single isomer, unassigned) [Example B11] | – |
| 411 nM | CN1CC2(CCCC2)C[C@H]1C(=O)N[C@@H]1CC[C@@H](Oc2cccc(C(=O)NS(C)(=O)=O)c2-c2cccc(F)c2C2CCC2)C1 (atropisomer, axis not shown) [Example I9, (3ξ)-N-[(1R,3R)-3-({(1ψ)-2′-cyclobutyl-3′-fluoro-6-[(methanesulfonyl)carbamoyl][1,1′-biphenyl]-2-yl}oxy)cyclopentyl]-2-methyl-2-azaspiro[4.4]nonane-3-carboxamide] | – |
| > 1000 nM | C[C@H](C(=O)O)c1ccc(O[C@@H]2CC[C@@H](NC(=O)[C@@]3(F)CNC4(CCC4)C3)C2)c(-c2cccc(F)c2C2CCC2)c1 (single isomer, unassigned) [Example A17] | – |
| 15.4 nM | CC1(C)CNC[C@](F)(C(=O)N[C@@H]2CC[C@@H](Oc3ccc(CC(=O)O)cc3-c3cccc(F)c3C3CCC3)C2)C1 (single isomer, unassigned) [Example A24] | – |
| 751 nM | C[C@H](C(=O)O)c1ccc(O[C@@H]2CC[C@@H](NC(=O)[C@@]3(F)CNC4(CCC4)C3)C2)c(-c2cccc(F)c2C2CCC2)c1 (single isomer, unassigned) [Example A18] | – |
| 209 nM | CC(C)(C(=O)NS(=O)(=O)N1CC(F)(F)C1)c1ccc(O[C@@H]2CC[C@@H](NC(=O)[C@]3(F)CNC4(CCC4)C3)C2)c(-c2cccc(F)c2C2CCC2)c1 (single isomer, unassigned) [Example B9] | – |
| 338 nM | CCc1c(F)cccc1-c1cc(C(C)(C)C(=O)NS(C)(=O)=O)ccc1O[C@@H]1CC[C@@H](NC(=O)[C@@]2(F)CNC3(CCCC3)C2)C1 (single isomer, unassigned) [Example C26] | – |
| 842 nM | C[C@H](C(=O)O)c1nn(C)cc1-c1ccc(O[C@@H]2CC[C@@H](NC(=O)[C@]3(F)CNC4(CCC4)C3)C2)c(-c2cccc(F)c2C2CCC2)c1 (single isomer, unassigned) [Example J3] | – |
| > 99.9 nM | CC(C)S(=O)(=O)NC(=O)C(C)(C)c1ccc(O[C@@H]2CC[C@@H](NC(=O)[C@]3(F)CNC4(CCC4)C3)C2)c(-c2ccccc2C2CCC2)c1 (single isomer, unassigned) [Example C49] | – |
| 321 nM | CC1(C)CNC[C@](F)(C(=O)N[C@@H]2CC[C@@H](Oc3ccc(C(C)(C)C(=O)NS(=O)(=O)C4(C)CC4)cc3-c3cccc(F)c3C3CCC3)C2)C1 (single isomer, unassigned) [Example C34] | – |
| 284 nM | CCn1cc(-c2ccc(O[C@@H]3CC[C@@H](NC(=O)[C@@]4(F)CNC5(CCC5)C4)C3)c(-c3cccc(F)c3C3CCC3)c2)c(C(=O)O)n1 (single isomer, unassigned) [Example J14] | – |
| 103 nM | CC1(C)CNC[C@](F)(C(=O)N[C@@H]2CC[C@@H](Oc3ccc(C(C)(C)C(=O)NS(=O)(=O)C4CC4)cc3-c3cccc(F)c3C3CCC3)C2)C1 (single isomer, unassigned) [Example B27] | – |
| 11.8 nM | CCc1c(F)cccc1-c1cc(CC(=O)NS(=O)(=O)C(C)C)ccc1O[C@@H]1CC[C@@H](NC(=O)[C@@]2(F)CNCC(C)(C)C2)C1 (single isomer, unassigned) [Example C66] | – |
